Experimental data from the NIST ThermoML archive (doi:10.1016/j.jct.2006.05.006).

Experiment: xn = mol fraction of the nth substance listed
Conditions: 101 kPa, Liquid

CN1CCCC1=O [N-methylpyrrolidone] + Cc1ccccc1
Conditions	mass density [kg/m3]
293.15 K, x2 = 0	1032.66
293.15 K, x2 = 0.0541	1024.34
293.15 K, x2 = 0.1254	1013.29
293.15 K, x2 = 0.1845	1004.06
293.15 K, x2 = 0.2412	995.15
293.15 K, x2 = 0.3154	983.34
293.15 K, x2 = 0.3845	972.23
293.15 K, x2 = 0.4521	961.22
293.15 K, x2 = 0.5214	949.8
293.15 K, x2 = 0.5865	938.94
293.15 K, x2 = 0.6458	928.94
293.15 K, x2 = 0.7124	917.57
293.15 K, x2 = 0.7784	906.16
293.15 K, x2 = 0.8425	894.94
293.15 K, x2 = 0.9014	884.51
293.15 K, x2 = 0.9784	870.71
303.15 K, x2 = 0	1023.42
303.15 K, x2 = 0.0482	1016
303.15 K, x2 = 0.1235	1004.32
303.15 K, x2 = 0.1856	994.6
303.15 K, x2 = 0.2436	985.45
303.15 K, x2 = 0.3145	974.17
303.15 K, x2 = 0.3854	962.74
303.15 K, x2 = 0.4521	951.88
303.15 K, x2 = 0.5236	940.09
303.15 K, x2 = 0.5852	929.81
303.15 K, x2 = 0.6451	919.71
303.15 K, x2 = 0.7145	907.86
303.15 K, x2 = 0.7854	895.61
303.15 K, x2 = 0.8541	883.57
303.15 K, x2 = 0.9015	875.19
303.15 K, x2 = 0.9789	861.34
313.15 K, x2 = 0	1014.27
313.15 K, x2 = 0.0522	1006.21
313.15 K, x2 = 0.1257	994.77
313.15 K, x2 = 0.1901	984.67
313.15 K, x2 = 0.2401	976.76
313.15 K, x2 = 0.321	963.85
313.15 K, x2 = 0.3952	951.86
313.15 K, x2 = 0.4654	940.38
313.15 K, x2 = 0.5321	929.35
313.15 K, x2 = 0.5984	918.25
313.15 K, x2 = 0.6541	908.84
313.15 K, x2 = 0.7248	896.74
313.15 K, x2 = 0.7895	885.54
313.15 K, x2 = 0.8412	876.51
313.15 K, x2 = 0.9215	862.31
313.15 K, x2 = 0.9759	852.57
323.15 K, x2 = 0	1005.62
323.15 K, x2 = 0.0487	998.04
323.15 K, x2 = 0.1147	987.71
323.15 K, x2 = 0.1789	977.59
323.15 K, x2 = 0.2365	968.43
323.15 K, x2 = 0.2987	958.46
323.15 K, x2 = 0.3695	947
323.15 K, x2 = 0.4351	936.27
323.15 K, x2 = 0.4954	926.31
323.15 K, x2 = 0.5654	914.62
323.15 K, x2 = 0.6215	905.15
323.15 K, x2 = 0.6945	892.69
323.15 K, x2 = 0.7658	880.39
323.15 K, x2 = 0.8321	868.8
323.15 K, x2 = 0.9201	853.23
323.15 K, x2 = 0.9758	843.26
333.15 K, x2 = 0	996.28
333.15 K, x2 = 0.0478	988.83
333.15 K, x2 = 0.1102	979.04
333.15 K, x2 = 0.1874	966.85
333.15 K, x2 = 0.2451	957.65
333.15 K, x2 = 0.3147	946.45
333.15 K, x2 = 0.3984	932.84
333.15 K, x2 = 0.4682	921.37
333.15 K, x2 = 0.5321	910.74
333.15 K, x2 = 0.5984	899.6
333.15 K, x2 = 0.6541	890.15
333.15 K, x2 = 0.7241	878.16
333.15 K, x2 = 0.7985	865.26
333.15 K, x2 = 0.8541	855.52
333.15 K, x2 = 0.921	843.69
333.15 K, x2 = 0.98	833.15
343.15 K, x2 = 0	987.39
343.15 K, x2 = 0.0512	979.36
343.15 K, x2 = 0.1245	967.81
343.15 K, x2 = 0.1895	957.47
343.15 K, x2 = 0.246	948.41
343.15 K, x2 = 0.3124	937.69
343.15 K, x2 = 0.3841	926
343.15 K, x2 = 0.4514	914.91
343.15 K, x2 = 0.5214	903.26
343.15 K, x2 = 0.5954	890.81
343.15 K, x2 = 0.6598	879.85
343.15 K, x2 = 0.7214	869.28
343.15 K, x2 = 0.7954	856.43
343.15 K, x2 = 0.8596	845.17
343.15 K, x2 = 0.9214	834.23
343.15 K, x2 = 0.9788	823.98
353.15 K, x2 = 0	978.62
353.15 K, x2 = 0.0821	965.64
353.15 K, x2 = 0.1337	957.42
353.15 K, x2 = 0.1993	946.92
353.15 K, x2 = 0.2646	936.37
353.15 K, x2 = 0.3306	925.62
353.15 K, x2 = 0.3965	914.8
353.15 K, x2 = 0.4514	905.7
353.15 K, x2 = 0.5214	894
353.15 K, x2 = 0.5984	880.99
353.15 K, x2 = 0.6514	871.96
353.15 K, x2 = 0.7214	859.91
353.15 K, x2 = 0.7984	846.52
353.15 K, x2 = 0.858	836.05
353.15 K, x2 = 0.9265	823.91
353.15 K, x2 = 0.9799	814.38
